Data set [1] in a line: method code SF-AS, from DOI: 10.1111/j.2042-7158.1979.tb13606.x, PMID: 41067. The settings on record: pH 1.2.
Data set [2] can be described thus: method code SF-AS, from DOI: 10.1111/j.1476-5381.1988.tb11523.x, PMID: 2900037.
Data set [3] can be described thus: method code SF-AS, from DOI: 10.1002/jps.2600650731. The settings on record: pH 11.5.
Data set [4] is described as follows: method code SF-AS, from DOI: 10.1021/es00012a023, PMID: 22148214.
Data set [5] in a line: method code SF, from DOI: 10.1016/0048-3575(88)90017-x.
Data set [6] in a line: method code SF, from DOI: 10.1515/bc.2002.085, PMID: 12108546.
Data set [7] can be described thus: method code SF-HPLC, from DOI: 10.1016/s0223-5234(02)01360-0, PMID: 12008054. The settings on record: pH 7.4.
A short description of data set [8]: method code SF-HPLC, from DOI: 10.1016/0006-2952(84)90322-8, PMID: 6704182.
Data set [9] in a line: method code SF, from DOI: 10.1021/jm030913e.s001, PMID: 14736235. The settings on record: pH 7.4.
A short description of data set [10]: method code SF-GLC, from Hermens, J., & De Bruijn, J. (1987). A QSAR study for fish toxicity data of organophosphorus compounds. QSAR in Drug Design and Toxicology, 10, 343-345.
The nature of data set [11]: method code SF-AS, from DOI: 10.1002/jps.2600800717, PMID: 1658297.
Data set [12] is described as follows: method code SF-HPLC, from DOI: 10.1016/0378-5173(87)90234-1. The settings on record: pH 4.0.
A short description of data set [13]: method code SF-AS, from Holmes, L.; Lough, E. (1976). Effect of Intramolecular Hydrogen Bonding on Partition Coefficients [Technical Note]. Defence Research Establishment Suffield.
Data set [14] can be described thus: method code SF-AS, from PMID: 3699148. The settings on record: pH 7.4.
Data set [15] in a line: method code SF-AS, from DOI: 10.1021/jm00163a043, PMID: 2153206. The settings on record: pH 7.0.
Data set [16] is described as follows: method code SF-AS, from DOI: 10.1007/bf01067967, PMID: 3820093. The settings on record: pH 7.5.
Assay in data set [17]: not given
This is another data set of the same source.

Data set [18] is described as follows: method code SF, from DOI: 10.1021/jm00307a001, PMID: 5637185.
The nature of data set [19]: method code SF, from DOI: 10.1016/j.bmcl.2006.04.097, PMID: 16714112.
Assay in data set [20]: not given
The source holds these as a separate data set.

Assay in data set [21]: not given
The source holds these as a separate data set.

Assay in data set [22]: not given
This is another data set of the same source.

Data set [23] can be described thus: method code SF-AS, from DOI: 10.1007/bf02877675, PMID: 411721.
Data set [24] can be described thus: method code SF-RC, from DOI: 10.1016/s0969-8051(98)00096-1, PMID: 10100217. The settings on record: pH 7.4.
Data set [25] is described as follows: method code SF-AS, from DOI: 10.1021/jm00223a031, PMID: 810572.

What is called logD is the decadic logarithm of the distribution of all forms, ionised or not, between an organic phase and buffer at a given pH. Higher therefore signals a more lipophilic compound. `COc1ccc(C(=O)O)cc1` registered a logD in [1] of 1.88.
Compound `CNC(=C[N+](=O)[O-])NCCSCc1nccs1` had a logD in [2] (pH 9.0) of -0.15.
For `CCCCCC/N=C(N)/N=C(\N)Nc1ccc(Cl)cc1`, in data set [3], the log distribution coefficient (logD) amounted to 1.85.
By logP is commonly meant a log measure of how a compound divides between an organic and an aqueous phase. The low end stands for lower lipophilicity, the high end for higher lipophilicity. As for `CC(C)OC(=O)CS(=O)c1ccccc1[N+](=O)[O-]` (configuration not stated), the logP in [4] is 1.59.
Compound `Cc1ccccc1N(C)C` had a logP of 2.81.
`CC(=O)OCN1C(=O)C2CC=CCC2C1=O` (configuration not stated): in data set [5], the logP came out at 0.97.
For `CCCCOC(=O)C1(C)CCC=[N+]1[O-]` (configuration not stated), the logP in [6] came to 0.12.
Regarding `NC(N)=N/N=C/c1c(Cl)cccc1Cl`, the logD in [7] was 1.4.
In data set [8], `O=c1ccn(C2OC(CO)C(O)C2O)c(=O)[nH]1` (configuration not stated) returned a logP of -1.81.
On to `CC(C)OC(=O)CS(=O)c1ccc([N+](=O)[O-])cc1[N+](=O)[O-]` (configuration not stated), for which the log partition coefficient (logP) in data set [4] was found to be 1.61.
Take `CCC[C@@H]1CC(=O)N([C@@H](CC)C(N)=O)C1`: in [9], the logD was determined as 1.
In data set [10], `COP(=S)(OC)Oc1ccccc1` yielded a logP of 2.97.
For `CC(=O)OC[C@H]1O[C@@H](n2ccc(N)nc2=O)[C@@H](OC(C)=O)[C@@H]1OC(C)=O`, in data set [8], the logP was -0.8.
Turning to `CC(=O)Nc1ccn([C@@H]2O[C@H](COC(C)=O)[C@@H](OC(C)=O)[C@@H]2OC(C)=O)c(=O)n1`, the logP in [8] was -0.16.
`CCCCCCCCOC(=O)C1(C)CCC=[N+]1[O-]` (configuration not stated) registered a logP in [6] of 1.62.
In data set [11], `CN(N=O)C(=O)NC[C@H](O)[C@@H](O)[C@H](O)[C@H](O)CO` returned a logP of -0.96.
`CC(C)OC(=O)n1cc(F)c(=O)[nH]c1=O` displayed a logD in data set [12] of 0.2.
With `CC(=O)c1ccc(O)cc1`, the log partition coefficient (logP) in data set [13] came to 1.45.
Compound `CC(=O)OCN1C(=O)c2cccc3cccc(c23)C1=O` came in with a logP in [5] of 2.34.
Regarding `NC(=O)c1cc(Cl)ccc1NCCO`, the logD in data set [14] worked out at 1.26.
For `CC1(C)CC(N(N=O)C(=O)NC2C(O)OC(CO)C(O)C2O)CC(C)(C)N1O` (configuration not stated), in data set [11], the logP worked out at 1.87.
With `O=C(NCCCOc1cccc(N2CCCCC2)c1)c1ccccc1`, the logD in data set [2] (pH 7.5) amounted to 3.97.
As for `Cc1cn([C@H]2C[C@H](N=[N+]=[N-])[C@@H](CO)O2)c(=O)[nH]c1=S`, the logD in [15] was 1.07.
In the case of `CNC(=NC#N)NCCSCc1csc(N=C(N)N)n1`, the logD in [2] (pH 9.0) amounted to 0.6.
Consider `CC(C)c1ccc(N)cc1`, for which, in data set [16], the logD was 2.31.
`CC(=O)OCN1C(=O)C=C(C)C1=O` had a logP in [5] of 0.45.
Turning to `CCOP(=S)(OCC)Oc1ccc([N+](=O)[O-])cc1`, the logP in data set [17] amounted to 3.45.
`CCCCc1ccc(N)cc1`: the logD in data set [16] came to 3.05.
Compound `C#CC(/C=C/Cl)(CC)OC(N)=O` (configuration not stated) gave a logP in [18] of 1.71.
`COc1ccc(CCC(=O)O)cc1`: the logD in [1] was determined as 1.9.
`Fc1cccc(Cl)c1C1=NCCO1` showed a logP in data set [19] of 1.89.
The compound `CCNc1nc(NCC)nc(OC)n1` showed a log partition coefficient (logP) in [20] of 2.41.
Regarding `O=C(c1ccccc1)c1ccccc1O`, the logP in [13] was 3.52.
`COP(=S)(OC)Oc1cc(Cl)c(I)cc1Cl` yielded a logP in data set [10] of 4.61.
The compound `CC(C)(C)c1ccc(O)c(C(C)(C)C)c1` yielded a lipophilicity (logP) in data set [21] of 4.74.
`NC(=O)c1ccccc1NCCO` displayed a logD in data set [14] of -0.05.
On to `CNc1ccccc1C`, for which the logP worked out at 2.16.
On to `Fc1cccc(F)c1C1=NCCO1`, for which, in data set [19], the logP was 1.45.
On to `Cc1ccc(SCCNc2ccccc2C(N)=O)cc1`, for which the logD in data set [14] was 3.15.
`Cc1ccc(CC(=O)O)cc1`: in data set [22], the logP came out at 2.04.
Same read-out and setting: with `CCCCOc1ccc(CC(=O)O)cc1` the figure was 2.94.
As to `CC(C)C(C(=O)O)c1ccc([N+](=O)[O-])cc1` (configuration not stated), the logP in data set [22] is 2.09.
`CON(C)C(=O)Nc1ccc(Cl)cc1`: the logP in [17] amounted to 2.16.
Regarding `CC[C@@H](C(N)=O)N1C[C@H](CI)CC1=O`, in data set [9], the logD came to 0.51.
For the compound `C#CC(C=C)(CC)OC(N)=O` (configuration not stated), the logP in [18] worked out at 1.09.
`O=c1[nH]c(=S)ccn1[C@H]1C=C[C@@H](CO)O1`: the logD in [15] was -0.28.
For the compound `CCC/N=C(N)/N=C(\N)Nc1ccc(Cl)cc1`, the logD in data set [3] came out at 2.63.
`N#CC(C#N)=NNc1cccc(Cl)c1` returned a log partition coefficient (logP) in data set [23] of 3.13.
Turning to `CC1(C)C(C=C(Cl)Cl)C1C(=O)OCc1cccc(Oc2ccccc2)c1` (configuration not stated), in data set [17], the logP came to 5.85.
`CCNc1nc(NC(C)CC)nc(OC)n1` (configuration not stated): in data set [20], the logP was found to be 2.96.
In [12], `CCCCCCOC(=O)n1cc(F)c(=O)[nH]c1=O` registered a logD of 2.04.
On to `COC1=C(OC)C(=O)C(CCCCCCCCCCO)=C(C)C1=O`, for which, in data set [24], the logD stood at 2.96.
As to `COC1=C(OC)C(=O)C(C)=CC1=O`, the logD in data set [24] stood at 0.73.
For `COc1ccc(O)c2ncccc12`, in data set [25], the logP was 2.06.
For `Cc1ccc2ccccc2n1`, the logP turned out to be 2.59.
`Cc1ccc(C)c(O)c1` yielded a logP in data set [21] of 2.48.
In the case of `CN(C(=N)N)/C(N)=N/c1ccc(Cl)cc1`, in [3], the logD was determined as 1.58.
With `COc1c(O)c(C)c(CCCCCCCCCCO)c(O)c1OC`, the logD in data set [24] was determined as 2.55.
`CCCCOc1ccc(C(=O)O)cc1` came in with a logD in [1] of 3.57.
Take `Cc1ccc(NN=C(C#N)C#N)cc1`: the logP in data set [23] was determined as 3.02.
In turn, `COc1cccc(C=O)c1O` had a logP in data set [13] of 1.33.
In [21], `CC(C)(C)c1cc(C(C)(C)C)c(O)c(C(C)(C)C)c1` came in with a logP of 6.3.
`CCC1(CC)SCC(=O)NC1=O`: in [18], the logP was determined as 1.5.
In data set [23], `N#CC(C#N)=NNc1ccccc1` registered a logP of 2.49.
`CC[C@@H](C(N)=O)N1CCCC1=O`: the logD in [9] was -0.65.
Regarding `O=[N+]([O-])c1ccccc1C1=NCCO1`, the logP in [19] was 1.27.
On to `CNC(=NC#N)NCCSCc1nc[nH]c1C`, for which the logD in [7] came out at 0.35.
Compound `CC1(C)CC(N(N=O)C(=O)NC2C(O)OC(CO)C(O)C2O)C(C)(C)N1O` (configuration not stated) came in with a logP in [11] of 1.81.
`Cc1ccnc2c(O)cccc12`: the logP in data set [25] came to 2.36.
As to `Nc1ccc2ccccc2c1`, the logD in [16] was 2.4.
`CC(C)C[C@H]1C(=O)N2CCC[C@H]2[C@]2(O)O[C@](NC(=O)[C@@H]3C=C4c5cccc6[nH]c(Br)c(c56)C[C@H]4N(C)C3)(C(C)C)C(=O)N12` returned a logD in [7] of 4.61.
In [20], `CNc1nc(NC(C)C)nc(SC)n1` had a logP of 2.79.
`Oc1cccc2c(Cl)ccnc12` returned a logP in [25] of 2.67.
The compound `O=C(c1ccccn1)n1c(=O)[nH]cc(F)c1=O` returned a logD in data set [12] of -0.06.
In data set [15], `Cc1cn([C@H]2C=C[C@@H](CO)O2)c(=O)[nH]c1=S` returned a logD of 0.09.
In turn, `CCOC(=O)C1(C)CCC=[N+]1[O-]` (configuration not stated) returned a logP in data set [6] of -0.82.
`COC(=O)CSc1ccccc1[N+](=O)[O-]` registered a logP in data set [4] of 1.88.
